Results: PMC9143054 (Journal of Personalized Medicine, 2022)
Where two headings read alike, the source gives them in different places.

Assays:
[1] = Acetaminophen pharmacokinetics after 1 g intravenous infusion (serum LC-MS/MS, noncompartmental analysis); type: in vivo, human
Description: Serum samples were collected every 30 min starting from the administration until 6 h after the treatment was initiated and immediately frozen at −80 °C until analysis. […] The protocol also included the collection of whole blood samples for genetic analyses.
The samples were mixed for 15 s and kept on ice for 20 min. Then, the samples were centrifuged for 10 min at 3000× g, at 4 °C. The supernatant (750 μL) was evaporated under a nitrogen stream. Then, the samples were resuspended in 40 μL of a mixture containing water ([…]), methanol (2.5%), and formic acid (0.1%). […] The column temperature was set at 20 °C. The flow rate was 0.2 mL/min, and the mobile phase consisted of the following gradient: Mobile phase A: 0.1% formic acid in water; Mobile phase B: 0.1 formic acid in methanol. The elution was started with a proportion of 97.5% A:2.5% B. A linear gradient increase from 2.5% to 65%B over 0.6 min was used, and then, the mobile phase reversed to initial conditions. The mass spectrometer was operated in positive electrospray ionization using multiple reaction monitoring (MRM). The source was set at 500 °C and 5.5 kV. […] Pharmacokinetic analyses were carried out by use of WinNonlin® V5.3 (Pharsight Corporation, St. Louis, MO, USA). The pharmacokinetic model chosen to calculate all parameters was noncompartmental with intravenous infusion. Untransformed data were used for all analyses.

[2] = Adverse drug events attributable to acetaminophen in the study participants; type: in vivo, human; conditions: single 1 g iv dose, ICU patients
[3] = cited from earlier work
[4] = UGT1A6*2/*2 diplotype vs UGT1A6*1/*1
[5] = UGT1A6*2/*4 diplotype vs UGT1A6*1/*1
[6] = concomitant drug therapy: Other (Inhibitors + Inducers) (n = 1), single patient, 1 g iv
[7] = human, serum, concomitant drug therapy: Other (Inhibitors + Inducers) (n = 1), single patient, 1 g iv

effect of UGT1A9 genotypes (UGT1A9*1/*3, *3/*3) on pharmacokinetics ([1]; 65 individuals without UGT1A6 variants, Supplementary Table S5): No major differences | pharmacokinetics in individuals who required on-demand opiates vs those who did not ([1]; Supplementary Table S6): No significant differences | increase in drug exposure (AUMC) [1, 4]: 66% | increase in t1/2 values [1, 4]: 38% | increase in drug exposure (AUMC) [1, 5]: 76% | increase in t1/2 values [1, 5]: 31% | K10 [1, 6]: 0.45; - 1/h | V (volume of distribution) [1, 6]: 299.16; - mg/(ug/mL) | Vss [1, 6]: 299.16; - mg/(ug/mL) | increase in t1/2 values ([1]; homozygous or double heterozygous for variant UGT1A6 alleles vs UGT1A6*1/*1): 22.5% | half-life ([1]; human, serum, intravenous, 1 g, whole study group, from less than 0.5 h up to more than 3.5 h, read-out: half-life (t1/2) values, range across individuals): 0.5 to 3.5 h | AUC(0-inf) [1, 7]: 7440 ng·h/mL | AUC(0-t) [1, 7]: 6660 ng·h/mL | C0 [1, 7]: 3340 ng/mL | MRT [1, 7]: 2.23 h | half-life ([1]; human, serum, concomitant drug therapy: Other (Inhibitors + Inducers) (n = 1), single patient, 1 g iv, read-out: t1/2 (converted)): 1.54 h
Structure (SMILES): CC(=O)Nc1ccc(O)cc1 [Acetaminophen]
adverse drug events attributable to acetaminophen [2]: None of the participants developed adverse drug events | fraction of acetaminophen metabolized in vivo [3]: about 90% | acetaminophen glucuronides as share of the metabolites recovered in urine ([3]; urine): about half | acetaminophen glucuronides as share of the urine metabolites ([3]; urine): more than 50%
